Source: patent publication USRE38333E1, “Antiviral phosphonomethoxy nucleotide analogs having increased oral bioavailability” (Gilead Sciences, Inc., priority 1996, dated 2003)
Read-outs that look alike come from different tables or passages of the source.

Legend:
[1] = assay type: in vitro ADME; settings: dog intestinal homogenate, 37° C., 20 μg/mL
Protocol: Dog intestinal segments (jejunum/ileum) were obtained fresh from Pharmakon USA (Waverly, Pa.) and intestinal homogenate was prepared as described for liver. The intestinal homogenates were stored as 1.0 mL aliquots at −70° C.
(§1) Enzymatic stability studies involving plasma and intestinal homogenate were performed with 90% biological fluids.
(§2) One blank (drug free) incubation was performed for each biological fluid. All biological fluid tubes (open) were pre-incubated without PMPA prodrugs in a shaker bath at 37° C. and 100 oscillation/min for 5 minutes. PMPA prodrugs was added to the test incubations (final concentration: 20 μg/mL, mixed and maintained at 37° C. and 100 oscillations/min. Samples (50 μL) were withdrawn at 0, 30, and 60 minutes and the reaction was quenched with 100 μL of 0.1% trifluoroacetic acid (TFA) in acetonitrile. Quenched samples were centrifuged for 5 minutes at 14,000 rpm in an Eppendorf Centrifuge 5402, and the supernatant was used for HPLC analysis.
(§3) For each incubation, the observed rate constant for degradation was calculated by plotting the log of the peak area of PMPA prodrugs versus time of incubation (min). The slope was the observed rate constant (kobs). The half life was calculated according to the following equation: [formula]
(§4) If the observed rate constant for degradation was less than 0.01 min^−1, then t½ was expressed as stable.

[2] = assay type: in vitro ADME; settings: 37° C., 20 μg/mL
Protocol: as §1, §2, §3, §4

[3] = Enzymatic stability in dog liver homogenate (S9); assay type: in vitro ADME; settings: 37° C., 20 μg/mL
Protocol: Dog liver was obtained fresh from Pharmakon USA (Waverly, Pa.). Liver homogenate was prepared following a standard protocol. Dog liver was rinsed three times with ice-code 50 mM sodium/potassium phosphate buffer and homogenized with a Tekmar Tissumizer homogenizer (VWR 33995-060). The homogenate was centrifuged at 9000 g (11,000 rpm for Eppendorf Centrifuge 5402; Brinkman Instruments, Westbury, N.Y.) at 4° C. for 20 minutes. The supernatant was designated at the S9 fraction. The concentration of protein in the S9 fraction was determined using a Bio-Rad Protein Assay Kit II, with bovine serum albumin as standard. Esterase activity was determined using o-nitrophenyl butyreate as substrate and activity was calculated based on the increase in absorbance at 420 nm after a 1 min incubation. The homogenates were stored as 1.0 mL aliquots at −70° C.
as §2, §3, §4

[4] = Oral bioavailability of PMPA and PMPA carbonates in beagle dogs; assay type: in vivo; settings: for % of PMPA IV (1 mg/kg) AUC: PMPA: 6.2-10 mg eq of PMPA/kg, PMPA in plasma; for % of PMPA IV (1 mg/kg) AUC: Prodrug: intact prodrug in plasma; for % of PMPA IV (1 mg/kg) AUC: Monoester: monoester in plasma; for % of PMPA IV (1 mg/kg) AUC: other: other species in plasma
Protocol: PMPA (9-[(R)-2-(phosphonomethoxy)propyl]adenine) and PMPA carbonates were examined to determine the effect of dose on the pharmacokinetics of PMPA in beagle dogs, in particular the bioavailability of PMPA following oral administration to beagle dogs.
The intravenous formulations used as standards were isotonic aqueous solutions containing 50 mg/mL PMPA. Compound was added to 10 mL of WFI (water for injection from Abbott Laboratory) and 1N NaOH was added to adjust the pH to 7.4. The solutions were diluted to 15 mL with WFI and sterile filtered with a 0.2 μm filter. The PMPA dose was 10 mg/kg (0.2 mL/kg).
The intravenous formulation for a 1 mg/kg dose was prepared as described above except only 75 mg of PMPA was added to WFI and the final concentration was 5 mg/mL. The dose was 1 mg/kg (0.2 mL/kg). Oral formulations of carbonates were prepared in 20-40% PEG 400/50 mM citric acid and were adjusted to pH 2.2.
Two groups of five adult male beagle dogs were used. The mean body weight at the time of the first does was 9.6±0.4 Kg (range 9.2-10.2). The dogs were fasted 12-18 hours prior to dosing and until 6 hours post-dose. For pentagastrin pretreatment, dogs were given a single intramuscular injection of pentagastrin (Peptavlon 0.25 mg/mL, Ayerst Laboratories, Inc., Philadelphia, Pa.) at a dose of 6 μg/kg, 20 minutes prior to dosing. Water was provided ad lib.
Each formulation was administered as a single dose to five male beagle dogs. Individual vials of each formulation were provided for each animal. The intravenous formulation was administrated via a cephalic vein. The oral suspension was administered by gavage, followed by two 10 mL water washes. At least one week washout period was allowed between administrations.
Blood samples (4.0 mL) were collected by direct jugular access from each animal into heparinized tubes. Animals remained conscious throughout the sample collection period. Blood was processed immediately for plasma by centrifugation at 2000 rpm for 10 minutes. Plasma samples were frozen and maintained at ≦−20° C. until analyzed.
Urine samples were collected over 0-24 and 24-48 hours time periods. Urine samples from 0-24 and 24-48 hours were divided into aliquots and mixed based on the volume collected and analyzed to determine amount of PMPA recovered from urine during 0-48 hours.
PMPA in Plasma and Urine was determined as follows. PMEA (9-(2-phosphono-methoxyethyl)adenine; adefovir) was used as the internal standard for both analyses. The total concentration of PMPA in dog plasma or urine samples was determined by derivatizing PMPA and PMEA with chloroacetaldehyde to yield a highly fluorescent N^1,N^6-ethenoadenine derivative as described (Russell, J. et al. (1991) Determination of 9-[(2-Phosophonylmethoxy)-ethyl]Adenine in Rat Urine by High-Performance Liquid Chromatography with Fluorescence Detection. J. Chromatogr. (Netherlands) 572, 321-326).
Sample Extraction for PMPA in plasma and urine was performed as follows. Plasma (200 μL) and internal standard ([…]) were mixed with 400 μL of acetonitrile containing 0.1% TFA to precipitate protein. Samples were then evaporated to dryness under reduced pressure at room temperature (Savant SpeedVac). Urine samples (20 μL) and internal standard (30 μL of 10 μg/mL PMEA providing a final PMEA concentration of 1.5 μg/mL) were used directly for derivatization without drying.
The samples were derivatized for analysis as follows. Dried plasma samples or urine samples were reconstituted or mixed in 200 μL derivatization cocktail (0.34% chloroacetaldehyde in 100 mM sodium acetate, pH 4.5), vortexed, and centrifuged for 10 minutes at 14,000 rpm in an Eppendorf Centrifuge 5402. Supernatant was then transferred to a clean screw capped tube and incubated at 95° C. for 40 minutes. Derivatized samples were quenched on ice and evaporated to dryness under reduced pressure at room temperature. […]

[5] = Partition coefficient (Log PC); assay type: physicochemical
[6] = Enzymatic stability in human intestinal homogenate (S9); assay type: in vitro ADME; settings: human intestinal homogenate (values in parentheses), 37° C., 20 μg/mL
Protocol: Human intestinal homogenate (S9) was obtained from Keystone Skin Bank (Exton, Pa.) at concentration of 20 mg protein/mL.
as §1, §2, §3, §4

HIV-1 (IIIB) = test: microbe, parasite or virus in culture; assay type: cell-based; settings: MT-2 cells; for IC50: read-out: IC50 (50% inhibitory concentration)
Description: PMPA (9-[(R)-2-(phosphonomethoxy)propyl]adenine) and PMPA carbonates were examined to determine their activity against HIV-1.

[7] = Cytotoxicity in MT-2 cells; assay type: cell-based; settings: human
Protocol: (§5) PMPA (9-[(R)-2-(phosphonomethoxy)propyl]adenine) and PMPA carbonates were examined to determine their activity against HIV-1. The antiviral activity of the carbonates 5a, 5c-g against HIV-1 (IIIB) was determined in MT-2 cells and the IC50 (50% inhibitory concentration) and CC50 (concentration to kill 50% of the cells) values were measured. […] The increased activity can be attributed to increased cellular uptake of the prodrugs followed by effective intracellular conversion to PMPA, which undergoes subsequent phosphorylation to the antivirally active diphosphate metabolite. […] The partition coefficient values support this hypothesis, with all prodrugs being more lipophilic (logP=0.6-3.2) compared to PMPA (logP=−2.5). [drawing 32]

MT-2 cells = test: Cytotoxicity in MT-2 cells; assay type: cell-based; settings: MT-2 cells; read-out: CC50 (concentration to kill 50% of the cells)
Protocol: as §5

SMILES: CCOC(=O)OC(C)OP(=O)(CO[C@H](C)Cn1cnc2c(N)ncnc21)OC(C)OC(=O)OCC (stereo partly drawn) [Bis-EtCOE PMPA]
- Biological t½ (min) (Dog) Intestine [1]: 62.4 min
- Biological t½ (min) (Dog) Plasma [2]: 42.6 min
- Biological t½ (min) (Dog) Liver [3]: <5 min

SMILES: C[C@H](Cn1cnc2c(N)ncnc21)OCP(=O)(OCOC(=O)NC(C)(C)C)OCOC(=O)NC(C)(C)C [Bis-tBuNCOM PMPA]
- Biological t½ (min) (Dog) Intestine [1]: 107.5 min
- Biological t½ (min) (Dog) Plasma [2]: 99.5 min
- Biological t½ (min) (Dog) Liver [3]: 166.5 min
- % of PMPA IV (1 mg/kg) AUC: PMPA [4]: 8.86 ± 2.38%
- % of PMPA IV (1 mg/kg) AUC: Prodrug [4]: 9.97%

SMILES: CCOC(=O)OCOP(=O)(CO[C@H](C)Cn1cnc2c(N)ncnc21)OCOC(=O)OCC [Bis-EtCOM PMPA, Bis-ethyl Oxymethyl Carbonate of PMPA]
- Log PC pH 7.4 [5]: 0.6
- Biological t½ (min) (Dog) Intestine [1]: 23.3 min
- Biological t½ (min) (Human) Intestine [6]: (<5) min
- Biological t½ (min) (Dog) Plasma [2]: 16.6 min
- Biological t½ (min) (Dog) Liver [3]: <5 min
- % of PMPA IV (1 mg/kg) AUC: PMPA [4]: 29.3 ± 3.4%
- % of PMPA IV (1 mg/kg) AUC: Prodrug [4]: 0%
- % of PMPA IV (1 mg/kg) AUC: Monoester [4]: −2%
- % of PMPA IV (1 mg/kg) AUC: other [4]: 0%

SMILES: C[C@H](Cn1cnc2c(N)ncnc21)OCP(=O)(O)O [PMPA, 9-[(R)-2-(phosphonomethoxy)propyl]adenine, reference compound]
- IC50 (HIV-1 (IIIB); Human immunodeficiency virus 1, MT2, HIV-1 (IIIB)): 0.5 µM
- SI, Selectivity Index (CC50/IC50) (HIV-1 (IIIB); HIV-1): 500
- CC50 [7]: 250 µM

SMILES: CCCN(CCC)C(=O)OCOP(=O)(CO[C@H](C)Cn1cnc2c(N)ncnc21)OCOC(=O)N(CCC)CCC [Bis-di-n-proNCOM PMPA]
- Biological t½ (min) (Dog) Intestine [1]: Stable (If the observed rate constant for degradation was less than 0.01 min^−1, then t½ was expressed as stable)
- Biological t½ (min) (Dog) Plasma [2]: Stable (If the observed rate constant for degradation was less than 0.01 min^−1, then t½ was expressed as stable)
- Biological t½ (min) (Dog) Liver [3]: 76 min

SMILES: C[C@H](Cn1cnc2c(N)ncnc21)OCP(=O)(OCOC(=O)OC(C)(C)C)OCOC(=O)OC(C)(C)C [Bis-t-Bu COM PMPA]
- Log PC pH 7.4 [5]: 1.93
- Biological t½ (min) (Dog) Intestine [1]: 26.6 min
- Biological t½ (min) (Human) Intestine [6]: (<5) min
- Biological t½ (min) (Dog) Plasma [2]: 21.2 min
- Biological t½ (min) (Dog) Liver [3]: 14.9 min
- % of PMPA IV (1 mg/kg) AUC: PMPA [4]: 36.2 ± 6.76%
- Urinary Recovery (% as PMPA) ([4]; urine 0-48 hours): 34.9%
- IC50 (HIV-1 (IIIB); HIV-1 (IIIB)): 0.2 µM
- increased potency compared to PMPA (HIV-1 (IIIB); HIV-1 (IIIB), relative to PMPA): 2.5 fold
- CC50 (MT-2 cells): 10 µM

SMILES: CC(C)COC(=O)OCOP(=O)(CO[C@H](C)Cn1cnc2c(N)ncnc21)OCOC(=O)OCC(C)C [Bis-IBu COM PMPA]
- Log PC pH 7.4 [5]: 2.0
- Biological t½ (min) (Dog) Intestine [1]: 15 min
- Biological t½ (min) (Human) Intestine [6]: (<5) min
- Biological t½ (min) (Dog) Plasma [2]: <5 min
- Biological t½ (min) (Dog) Liver [3]: <5 min
- % of PMPA IV (1 mg/kg) AUC: PMPA [4]: 24.5 ± 8.82%

SMILES: CCCCOC(=O)OCOP(=O)(CO[C@H](C)Cn1cnc2c(N)ncnc21)OCOC(=O)OCCCC [Bis-nBuCOM PMPA, Bis-n-butyl Oxymethyl Carbonate of PMPA]
- Log PC pH 7.4 [5]: 2.7
- Biological t½ (min) (Dog) Intestine [1]: <5 min
- Biological t½ (min) (Human) Intestine [6]: (<5) min
- Biological t½ (min) (Dog) Plasma [2]: <5 min
- Biological t½ (min) (Dog) Liver [3]: <5 min
- % of PMPA IV (1 mg/kg) AUC: PMPA [4]: 17.3 ± 2.57%

SMILES: CC(C)OC(=O)OCOP(=O)(CO[C@H](C)Cn1cnc2c(N)ncnc21)OCOC(=O)OC(C)C [Bis-isopropylCOM PMPA, Bis Isopropyl Oxymethyl Carbonate of PMPA]
- Log PC pH 7.4 [5]: 1.25
- Biological t½ (min) (Dog) Intestine [1]: 52.6 min
- Biological t½ (min) (Human) Intestine [6]: (<5) min
- Biological t½ (min) (Dog) Plasma [2]: 20.5 min
- Biological t½ (min) (Dog) Liver [3]: <5 min
- % of PMPA IV (1 mg/kg) AUC: PMPA [4]: 35.8 ± 14.7%
- % of PMPA IV (1 mg/kg) AUC: Prodrug [4]: 0%
- % of PMPA IV (1 mg/kg) AUC: Monoester [4]: 3.1%
- % of PMPA IV (1 mg/kg) AUC: other [4]: 0%
